Source: patent US20130289089A1, “Pharmaceutical Compositions for Topical Delivery of Photosensitizers and Uses Thereof” (priority 2011, published 2013)

How the values were obtained:
Format in all cases: physicochemical
[1] = Solubility of lemuteporfin in various solvents (HPLC analysis)
Excerpt: The solubility of lemuteporfin in various solvent compositions is shown in the last column of Table 2. All values were obtained analytically by HPLC analysis.
Solubility results for lemuteporfin indicated maximum solubility in solvent-based formulations containing primarily benzyl alcohol. […] The addition of other solvents reduced solubility by approximately the amount of the new solvent introduced. Diethylene glycol monoethyl ether (DGME) is about 20% as efficient at dissolving lemuteporfin as benzyl alcohol.

[2] = Solubility of lemuteporfin in the LTS formulation (stirred, sampled, filtered)
Description: LTS was prepared by adding lemuteporfin to the other components in Table 4 (already pre-mixed) at room temperature. The solution was stirred and samples were removed at various time points, and filtered to determine the amount of undissolved lemuteporfin. The amount of lemuteporfin that dissolved was approximately 0.048%.
Studies were conducted to determine the effect of certain of the LTS excipients on the solubility of lemuteporfin.

[3] = Stability of supersaturated/reconstituted lemuteporfin solutions up to 4 hours (filtered, HPLC); settings: up to 4 hours post-reconstitution
Description: Samples of the compositions are taken at various time points after combining the photosensitizing component and the excipient component. Half of the samples are filtered to remove any precipitates, for example through a 0.22 μm filter. The filtered solutions are analyzed, for example, using HPLC, for the content or concentration of photosensitizer. If the solution is stable, and no photosensitizer has precipitated out, then the concentration of photosensitizer in the filtered solution should be roughly the same as the concentration of photosensitizer in the unfiltered solution, within experimental error.
Three formulations (Batches C (Table 8), D (Table 9) and H (Table 10)) in which the Vial 1 photosensitizer component consisted of benzyl alcohol and lemuteporfin at three lemuteporfin concentrations, 0.1, 0.075 and 0.05% w/w in the final combined LTS solution were examined for stability after reconstitution with the remaining excipients in Vial 2.
Vial 2 contents were added to vial 1 for each formulation, mixed and sampled at time 0 and 4 hours after reconstitution. The samples were filtered through a 0.22 μm filter before analysis by HPLC. This analysis was performed to ensure that the combined product had adequate stability and would not precipitate before administration to a subject. […]

Efficiency of DGME at dissolving lemuteporfin relative to benzyl alcohol ([1]; DGME versus benzyl alcohol): about 20%
Solubility, % w/w Lemuteporfin ([1]; solvent % w/w: DGME 45, benzyl alcohol 45, oleyl alcohol 5, oleic acid 5): 1.373 % w/w
Solubility, % w/w Lemuteporfin ([1]; solvent % w/w: DGME 50, benzyl alcohol 15, oleic acid 35): 0.230 % w/w
Solubility, % w/w Lemuteporfin ([1]; solvent % w/w: DGME 50, benzyl alcohol 15, oleyl alcohol 35): 0.200 % w/w
Solubility, % w/w Lemuteporfin ([1]; solvent % w/w: DGME 50, benzyl alcohol 50): 1.57 % w/w
Solubility, % w/w Lemuteporfin ([1]; solvent % w/w: DGME 52, benzyl alcohol 16, oleyl alcohol 16, oleic acid 16): 0.210 % w/w
Solubility, % w/w Lemuteporfin ([1]; solvent % w/w: DGME 65, oleyl alcohol 17.5, oleic acid 17.5): 0.271 % w/w
Solubility, % w/w Lemuteporfin ([1]; solvent % w/w: DGME 65, oleyl alcohol 35): 0.430 % w/w
Solubility, % w/w Lemuteporfin ([1]; solvent % w/w: DGME 90, isopropyl myristate 10): 0.430 % w/w
Solubility, % w/w Lemuteporfin ([1]; solvent % w/w: DGME 90, oleyl alcohol 5, oleic acid 5): 0.420 % w/w
Solubility, % w/w Lemuteporfin ([1]; solvent % w/w: DGME 90, oleyl alcohol 10): 0.420 % w/w
Solubility, % w/w Lemuteporfin ([1]; solvent % w/w: benzyl alcohol 30, ethanol (190) 70): 0.455 % w/w
Solubility, % w/w Lemuteporfin ([1]; solvent % w/w: benzyl alcohol 30, oleyl alcohol 70): 0.166 % w/w
Solubility, % w/w Lemuteporfin ([1]; solvent % w/w: benzyl alcohol 40, isopropyl myristate 60): 0.090 % w/w
Solubility, % w/w Lemuteporfin ([1]; solvent % w/w: benzyl alcohol 50, ethanol (190) 50): 0.453 % w/w
Solubility, % w/w Lemuteporfin ([1]; solvent % w/w: benzyl alcohol 50, oleic acid 50): 0.409 % w/w
Solubility, % w/w Lemuteporfin ([1]; solvent % w/w: benzyl alcohol 50, oleyl alcohol 50): 0.228 % w/w
Solubility, % w/w Lemuteporfin ([1]; solvent % w/w: benzyl alcohol 50, propylene glycol 50): 0.494 % w/w
Solubility, % w/w Lemuteporfin ([1]; solvent % w/w: benzyl alcohol 90, isopropyl myristate 10): 2.30 % w/w
Solubility, % w/w Lemuteporfin ([1]; solvent % w/w: benzyl alcohol 90, oleic acid 10): 2.33 % w/w
Solubility, % w/w Lemuteporfin ([1]; solvent % w/w: benzyl alcohol 90, oleyl alcohol 5, oleic acid 5): 2.22 % w/w
Solubility, % w/w Lemuteporfin ([1]; solvent % w/w: benzyl alcohol 90, oleyl alcohol 10): 2.24 % w/w
Solubility, % w/w Lemuteporfin ([1]; solvent: benzyl alcohol 100 % w/w): 2.55 % w/w
Solubility of lemuteporfin in the LTS solution system ([2]; isopropyl alcohol removed (data not shown)): ~0.07 % w/w
Amount of lemuteporfin that dissolved in the Table 4 components ([2]; room temperature): approximately 0.048%
Lemuteporfin content (% w/w), dissolved in formulation of Table 4 ([2]; room temperature, time point 0.17 hours): 0.0241 % w/w
Lemuteporfin content (% w/w), dissolved in formulation of Table 4 ([2]; room temperature, time point 2.47 hours): 0.0482 % w/w
Lemuteporfin content (% w/w), dissolved in formulation of Table 4 ([2]; room temperature, time point 4.37 hours): 0.0453 % w/w
Lemuteporfin content (% w/w), dissolved in formulation of Table 4 ([2]; room temperature, time point 6.37 hours): 0.0463 % w/w
Lemuteporfin content (% w/w), dissolved in formulation of Table 4 ([2]; room temperature, time point 23.5 hours): 0.0370 % w/w
Solubility of lemuteporfin in the LTS solution system ([2]; with isopropyl alcohol (data not shown)): approximately 0.03 % w/w
Solubility of lemuteporfin in the LTS solution system ([2]; with polysorbate 80 (data not shown)): 0.037 % w/w
Solubility of lemuteporfin in the LTS solution system ([2]; without polysorbate 80 (data not shown)): 0.027 % w/w
Precipitation after reconstitution [3]: has not precipitated out of solution
Substance: lemuteporfin
